These results are taken from paper PMC2982120 (2010).

One series has as its target T1, Jen1p (Saccharomyces cerevisiae, UniProt P36035).
T1 sequence (P36035 2-616): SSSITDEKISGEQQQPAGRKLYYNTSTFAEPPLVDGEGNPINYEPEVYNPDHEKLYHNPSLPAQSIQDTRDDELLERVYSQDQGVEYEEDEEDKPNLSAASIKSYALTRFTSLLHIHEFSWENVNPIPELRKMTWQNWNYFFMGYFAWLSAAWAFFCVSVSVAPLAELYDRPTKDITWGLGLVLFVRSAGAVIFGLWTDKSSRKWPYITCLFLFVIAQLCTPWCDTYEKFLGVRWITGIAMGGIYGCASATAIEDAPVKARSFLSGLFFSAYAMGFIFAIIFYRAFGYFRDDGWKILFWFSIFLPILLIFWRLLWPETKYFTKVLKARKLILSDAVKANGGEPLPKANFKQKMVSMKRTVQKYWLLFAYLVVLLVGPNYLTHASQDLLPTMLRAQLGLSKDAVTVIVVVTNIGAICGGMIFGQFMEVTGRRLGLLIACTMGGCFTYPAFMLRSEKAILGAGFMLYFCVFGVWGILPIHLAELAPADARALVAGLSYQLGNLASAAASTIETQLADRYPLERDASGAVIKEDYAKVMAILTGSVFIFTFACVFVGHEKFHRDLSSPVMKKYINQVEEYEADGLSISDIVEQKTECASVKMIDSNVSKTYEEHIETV
Nature of the series: […]-lactate uptake in Jen1p-overexpressing yeast. The series is classed as cell-based.

Substrate in the series “selenite uptake”: O=[Se](O)O
Nature of the series: selenite uptake. In kind it is cell-based, Saccharomyces cerevisiae. As to conditions: competitive with lactate.

`CC(O)C(=O)O` (centres unmarked) [lactate] returned a Ki on Jen1p of 900 µM.

B1: Jen1p (Saccharomyces cerevisiae S288C) (protein)
chain: SSSITDEKISGEQQQPAGRKLYYNTSTFAEPPLVDGEGNPINYEPEVYNPDHEKLYHNPSLPAQSIQDTRDDELLERVYSQDQGVEYEEDEEDKPNLSAASIKSYALTRFTSLLHIHEFSWENVNPIPELRKMTWQNWNYFFMGYFAWLSAAWAFFCVSVSVAPLAELYDRPTKDITWGLGLVLFVRSAGAVIFGLWTDKSSRKWPYITCLFLFVIAQLCTPWCDTYEKFLGVRWITGIAMGGIYGCASATAIEDAPVKARSFLSGLFFSAYAMGFIFAIIFYRAFGYFRDDGWKILFWFSIFLPILLIFWRLLWPETKYFTKVLKARKLILSDAVKANGGEPLPKANFKQKMVSMKRTVQKYWLLFAYLVVLLVGPNYLTHASQDLLPTMLRAQLGLSKDAVTVIVVVTNIGAICGGMIFGQFMEVTGRRLGLLIACTMGGCFTYPAFMLRSEKAILGAGFMLYFCVFGVWGILPIHLAELAPADARALVAGLSYQLGNLASAAASTIETQLADRYPLERDASGAVIKEDYAKVMAILTGSVFIFTFACVFVGHEKFHRDLSSPVMKKYINQVEEYEADGLSISDIVEQKTECASVKMIDSNVSKTYEEHIETV
As for B1, the Km in “selenite uptake” stood at 910 ± 130 µM.
